Test results as given in patent publication US10996215B2, “Methods for determining drug efficacy for the treatment of diffuse large B-cell lymphoma, multiple myeloma, and myeloid cancers” (CELGENE CORPORATION, priority 2013, dated 2021).

Experiments:
AML cell line (HNT-34) = test: tandem-mass-tagged proteomics of global cellular protein levels; assay type: cell-based, human; conditions: 10 micromolar
Protocol: (§1) Samples were subjected to multiplexed quantitative mass spectrometry analysis. In particular, cell lysate was prepared from the samples, and was subjected to tandem protein digestion using LysC and trypsin, peptide labeling with either Tandem Mass Tag 6-plex or 10-plex reagents, and peptide fractionation. Multiplexed quantitative mass spectrometry data were collected on an Orbitrap Fusion mass spectrometer operating in a MS3 mode using synchronous precursor selection for the MS2 to MS3 fragmentation. MS/MS data were searched against a Uniprot human database with both the forward and reverse sequences using the SEQUEST algorithm. Additional data processing steps included controlling peptide and protein level false discovery rates, assembling proteins from peptides, and protein quantification from peptides. Each drug-treated sample has 3 replicates, each DMSO sample has 4 replicates.
(§2) T is the statistic calculated for the t.test. P.value represents statistical significance for the test. Adj.P.value represents FDR multiple testing correction of the P.values in previous parameter. B log odds that the protein is differentially abundant between the conditions (compound vs control).

[1] = tested on: del(5q) MDS cell line (MDS-L); test: as above; assay type: cell-based, human
Protocol: as §1, §2

[2] = tested on: Aiolos, Ikaros, IRF4, Cereblon; test: Western blot of Aiolos, Ikaros, IRF4, Cereblon in DLBCL cell lines; assay type: cell-based, human
Protocol: Immunoblots were probed with antibodies recognizing: Aiolos, Ikaros, Cereblon, IRF4, c-myc, CD44, EZH2, EBF 1, PU. 1, and β-actin. Signals were detected with a LI-COR imager
The following steps can be performed to harvest cells in preparation for Western Blot analysis. The steps are performed on ice and any centrifugation is performed in a 4° C. refrigerated centrifuge. RIPA lysis buffer (Pierce, cat #89900) is first prepared by adding […] proteinase inhibitors (Pierce, cat #78443) to 1 mL of RIPA buffer. Subsequently, cells are washed once in ice-cold phosphate buffered saline (PBS). The cells are then lysed with 0.25 mL RIPA lysis buffer. The PBMCs are placed on ice for 30 minutes and vortexed every 10 minutes. Lysates are frozen and stored at −80° C. prior to further processing.
Lysates are placed in a QIAshredder® tube (QIAGEN, cat #79656) and spun down 30 sec, top speed (13200 rpm) in an Eppendorf benchtop centrifuge (Model 5415 R). The lysate is then transferred to a 1.5 mL clear Eppendorf tube and spun down 10 min at top speed. The supernatent is collected without disturbing the cell debris pellet. The supernatent is dry ice frozen and stored at −80° C. prior to analysis.
The protein concentration in supernatent is measured using BCA assay and the expected protein yield is about 0.5-5 μg/μL, or 125-1250 μg total. Approximately ≥10 μg protein per lane is loaded for western blotting (IRF4, IKZF3, etc.) using antibodies against the human proteins.
Membranes are immunblotted with anti-Aiolos (Santa Cruz Biotechnology, Dallas, Tex.), anti-Ikaros (Millipore, Billerica, Mass.) and anti-Actin (Sigma, St. Louis, Mo.; or LI-COR Biosciences, Lincoln, Nebr.) and secondary antibodies (LI-COR Biosciences, Lincoln, Nebr.). The blots are analyzed on Odyssey imager (LI-COR Biosciences, Lincoln, Nebr.).

[3] = tested on: DLBCL cell lines (GCB and ABC); test: tritiated thymidine incorporation proliferation assay; assay type: cell-based
Protocol: Cells were then cultured for 3 days at 37° C. Tritiated thymidine was applied to the cell culture for the final 6 hours and cells were then harvested onto filter plates. After the plates have dried, scintillation fluid was added to the plates and read on a Top-count reader.
The cells were then analyzed for proliferation using a ^3H-thymidine incorporation assay.
Proliferation was assessed through tritiated thymidine incorporation.

ABC-DLBCL cell line = test: Tandem Mass Tag proteomics, lenalidomide vs Compound A; assay type: cell-based; conditions: ABC-DLBCL cell line; 10 uM; 24 h; vs DMSO
Excerpt: Cells were harvested and proteins were fractionated using a basic pH reverse gradient method. Fractionated samples were labeled using a Tandem Mass Tag method.

IFN pathway = test: effect on IFN pathway (FIG. 13); assay type: cell-based
HNT-34 = test: 4 d BrdU cell assay / tritiated thymidine, sensitivity; assay type: cell-based
Protocol: (§3) Sensitivity to lenalidomide treatment in a panel of myeloid cancer cell lines was evaluated by tritiated thymidine and/or BrdU assays.

MDS-L = test: as above; assay type: cell-based
Protocol: as §3

[4] = tested on: other myeloid cancer cell lines; test: 4 d BrdU cell assay, sensitivity; assay type: cell-based; conditions: other cell lines of the panel, predominantly insensitive
Protocol: as §3

CSNK1A1, Ikaros = test: Western analysis of BMMC or PBMC of lenalidomide-treated AML patients; assay type: in vivo; conditions: 50 mg daily
Protocol: 3-5 μg total protein from each sample was evaludated for CSNK1A1, Ikaros, and GAPDH expressions by western analysis.

CSNK1A1 (CK1α), Ikaros = test: MG-132, MLN-4924 or Compound A pre-treatment, Western analysis in HNT-34 cells; assay type: cell-based; conditions: 10 μM, 3 h or 6 h

For Nc1cccc2c1CN(C1CCC(=O)NC1=O)C2=O (stereo not shown) [lenalidomide, 3-(4-amino-1-oxo-1,3-dihydro-isoindol-2-yl)-piperidine-2,6-dione], the “log2FC CSNK1A1” value (AML cell line (HNT-34); 8 hours) was −1.6, the “log2FC IKZF1” value (AML cell line (HNT-34); 8 hours) was −2.1 and the “log2FC CALM1” value (AML cell line (HNT-34); 24 hours) was −1.1. The “log2FC CCNA2” value (AML cell line (HNT-34); 24 hours) was −1.1, the “log2FC CSNK1A1” value (AML cell line (HNT-34); 24 hours) was −1.4 and the “log2FC IKZF1” value (AML cell line (HNT-34); 24 hours) was −2.4. The “log2FC SERP1NH1” value (AML cell line (HNT-34); 24 hours) was 1.1, the “log2FC ZFP91” value (AML cell line (HNT-34); 24 hours) was −1.4 and the “log2FC ARHGAP18” value (AML cell line (HNT-34); 72 hours) was 1.0. For the same compound, the “log2FC CASS4” value (AML cell line (HNT-34); 72 hours) was 1.0, the “log2FC CORO1B” value (AML cell line (HNT-34); 72 hours) was 1.4 and the “log2FC CSNK1A1” value (AML cell line (HNT-34); 72 hours) was −1.5. The “log2FC DAB2” value (AML cell line (HNT-34); 72 hours) was 1.3, the “log2FC HSPB1” value (AML cell line (HNT-34); 72 hours) was 1.5 and the “log2FC IKZF1” value (AML cell line (HNT-34); 72 hours) was −2.4. The “log2FC ITM2C” value (AML cell line (HNT-34); 72 hours) was −1.2, the “log2FC PPFIBP1” value (AML cell line (HNT-34); 72 hours) was 1.2 and the “log2FC SERPINH1” value (AML cell line (HNT-34); 72 hours) was 1.7. For the same compound, the “log2FC ZFP91” value (AML cell line (HNT-34); 72 hours) was −1.1, the “log2FC CSNK1A1” value ([1]; 10 micromolar, 8 hours) was −1.6 and the “log2FC IKZF1” value ([1]; 10 micromolar, 8 hours) was −2.1. For the same compound, the “log2FC CCNA2” value ([1]; 10 micromolar, 24 hours) was −1.1, the “log2FC CSNK1A1” value ([1]; 10 micromolar, 24 hours) was −1.4 and the “log2FC IKZF1” value ([1]; 10 micromolar, 24 hours) was −2.4. The “log2FC SERPINH1” value ([1]; 10 micromolar, 24 hours) was 1.1, the “log2FC ZFP91” value ([1]; 10 micromolar, 24 hours) was −1.4 and the “log2FC ARHGAP18” value ([1]; 10 micromolar, 72 hours) was 1.0. The “log2FC CASS4” value ([1]; 10 micromolar, 72 hours) was 1.0, the “log2FC CORO1B” value ([1]; 10 micromolar, 72 hours) was 1.4 and the “log2FC CSNK1A1” value ([1]; 10 micromolar, 72 hours) was −1.5. The “log2FC CYTL1” value ([1]; 10 micromolar, 72 hours) was −1.2, the “log2FC DAB2” value ([1]; 10 micromolar, 72 hours) was 1.3 and the “log2FC HSPB1” value ([1]; 10 micromolar, 72 hours) was 1.5. For the same compound, the “log2FC IKZF1” value ([1]; 10 micromolar, 72 hours) was −2.4, the “log2FC ITM2C” value ([1]; 10 micromolar, 72 hours) was −1.2 and the “log2FC PPFIBP1” value ([1]; 10 micromolar, 72 hours) was 1.2. For the same compound, the “log2FC SERP1NH1” value ([1]; 10 micromolar, 72 hours) was 1.7, the “log2FC YEATS2” value ([1]; 10 micromolar, 72 hours) was 2.5 and the “log2FC ZFP91” value ([1]; 10 micromolar, 72 hours) was −1.1. For the same compound, the “down-regulation of Ikaros” value ([1]; 72 hrs, most down-regulated protein) was “about 5 fold”, the “down-regulation of CSNK1A1” value ([1]; 72 hrs, second most down-regulated protein) was “about 3 fold” and the IRF4 levels ([2]; DLBCL cell lines, 1 μM or 10 μM, within 72 hours) was “reduce”. For the same compound, the Aiolos levels ([2]; Karpas 422 (GCB) and TMD8 (ABC), 10 μM, 1, 6 or 12 hours, vs DMSO) was “decrease”, the “Aiolos and Ikaros levels” value ([2]; WSU-DLCL2 (GCB) and OCI-LY10 (ABC), 10 μM, 1, 6 or 12 hours, vs DMSO) was “decreasing” and the CRBN levels ([2]; nine GCB and ABC DLBCL cell lines, 1 μM or 10 μM, 72 hours) was “remained constant”. The “Aiolos and Ikaros levels” value ([2]; nine GCB and ABC DLBCL cell lines, 1 μM or 10 μM, 72 hours, vs DMSO) was “decreasing”, the “sensitivity of ABC DLBCL cell lines” value [3] was “sensitive” and the “sensitivity of GCB cell lines” value [3] was “less sensitive”. For the same compound, the “effect on CSNK1A1 protein” value (ABC-DLBCL cell line) was “decreases”, the “IFIT1, IFIT3, DDX58, XAF1, IFIH1, and OAS3 protein expression” value (IFN pathway; FIG. 13A) was “upregulates” and the “DDX58, IFI27, IFIT1, IFIT3, DDX58, and XAF1 gene expression” value (IFN pathway; FIG. 13B) was “upregulates”. For the same compound, the “ISG15 and OAS3 gene expression” value (IFN pathway; FIG. 13C) was “upregulates”, the IRF changes (IFN pathway; FIG. 13E) was “induces” and the “IFIT1 and IFIT3 protein expression” value (IFN pathway; FIG. 13F) was “upregulates”. The IKKE protein level (IFN pathway; FIG. 13F) was “reduces”, the “TBK1 phosphorylation (TBK1-PO4)” value (IFN pathway; FIG. 13F) was “upregulates” and the “levels of STAT or phosphorylated STAT” value (IFN pathway; FIG. 13G) was “induces changes”. The EC50 (HNT-34; 96 h, HNT-34, 4 d BrdU) was 600 nM, the “sensitivity of HNT-34 cells” value (HNT-34; FIG. 22B) was “sensitive” and the EC50 (MDS-L; 96 h, MDS-L, 4 d BrdU) was 1500 nM. The “sensitivity of MDS-L cells” value (MDS-L; FIG. 22B) was “sensitive”, the EC50 [4] was > 10000 nM and the “patients with both CSNK1A1 and Ikaros modulated (down-regulated)” value (CSNK1A1, Ikaros) was 4 of 5. The “CSNK1A1 and Ikaros proteins levels” value (CSNK1A1 (CK1α), Ikaros) was “decreased”.
